Series [1] addresses T1, CRBD of FROUNT (a.a. 532-656) bearing the L538E/P612S mutations (Homo sapiens, UniProt Q9BW27, L538E/P612S).
T1 construct: 50 µM CRBD of FROUNT (a.a. 532–656) bearing the L538E/P612S mutations or its mutant (C603S); made in house
T1 sequence (Q9BW27 532-656 L538E/P612S): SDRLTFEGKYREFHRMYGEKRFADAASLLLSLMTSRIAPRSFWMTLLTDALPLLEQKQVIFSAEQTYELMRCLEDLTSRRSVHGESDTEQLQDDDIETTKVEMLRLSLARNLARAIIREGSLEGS
Put plainly: NMR titration (1H-15N HSQC) of CRBD of FROUNT. As to conditions: 12.5-50 µM compound, 50 µM CRBD. It counts as binding. The protocol:
All ^1H–^15N heteronuclear single quantum correlation (HSQC) NMR spectra were measured at 25 °C on a Bruker 600-MHz AVANCE III spectrometer with a cryogenic probe. […] The assignments of the backbone ^1H^N and ^15N NMR signals of CRBD were performed, based on the previous paper. […] Combined chemical shift differences Δδ was calculated by Δδ = [(ΔδHN)^2 + (ΔδN/6.5)^2]^1/2, where ΔδHN and ΔδN are the chemical shift differences for ^1H^N and ^15N, respectively.

For series [2], the target named is T2, Full-length FROUNT protein (Homo sapiens, UniProt Q9BW27).
T2 construct: made in house
T2 sequence (Q9BW27 1-656): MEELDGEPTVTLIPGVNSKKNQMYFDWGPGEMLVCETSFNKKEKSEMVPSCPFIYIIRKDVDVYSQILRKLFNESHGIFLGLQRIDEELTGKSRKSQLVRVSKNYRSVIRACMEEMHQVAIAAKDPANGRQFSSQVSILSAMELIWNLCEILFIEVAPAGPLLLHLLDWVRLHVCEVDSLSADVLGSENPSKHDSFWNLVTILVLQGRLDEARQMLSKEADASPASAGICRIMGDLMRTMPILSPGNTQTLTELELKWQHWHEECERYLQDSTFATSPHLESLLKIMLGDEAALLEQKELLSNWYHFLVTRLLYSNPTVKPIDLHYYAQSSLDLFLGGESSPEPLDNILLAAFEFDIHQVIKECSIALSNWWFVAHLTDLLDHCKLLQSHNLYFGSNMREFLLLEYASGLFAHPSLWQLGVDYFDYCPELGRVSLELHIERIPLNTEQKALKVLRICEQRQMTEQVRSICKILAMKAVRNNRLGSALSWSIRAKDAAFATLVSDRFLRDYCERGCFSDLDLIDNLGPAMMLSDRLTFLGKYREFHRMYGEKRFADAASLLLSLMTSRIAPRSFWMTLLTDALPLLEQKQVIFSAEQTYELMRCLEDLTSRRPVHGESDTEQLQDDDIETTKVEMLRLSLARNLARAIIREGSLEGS
Put plainly: Surface plasmon resonance binding to FROUNT. As to conditions: SPR, concentration-dependent. Here is the method:
Interactions between FROUNT and library compounds were analyzed by surface plasmon resonance using a Biacore T100 (GE Healthcare). Full-length FROUNT protein or the FROUNT-binding region of CCR2 was immobilized on the CM5 sensor chip[56]. […] The resonance unit (RU) was measured during the binding and washing periods, and the binding kinetics were analyzed. Solvent correction with DMSO was performed using Biacore T100 evaluation software.
(SPR reads the build-up and loss of mass on a sensor chip optically.)

Series [3] relates to THP-1 cells. Kind of series: Chemotaxis inhibition assay (chemoTX chamber, CCL2). It counts as cell-based, human. As to conditions: towards CCL2, 90 min. Here is the method:
Chemotaxis was measured in a 96-well chemoTX chemotaxis chamber with a polycarbonate filter (5-μm pore size) (Neuro probe). Human CCL2 (R&D Systems) was added to the lower chamber of the plate and the cells were added to the upper chamber. After incubation at 37 °C and 5% CO2 for 90 min, the filter was removed and the number of migrated cells in the lower chamber was counted using a cell counting kit F (Dojindo). Data are expressed as migration efficiency (percentage of the maximal migration).

Series [4] addresses T3, FROUNT-CCR2 interaction (Homo sapiens, UniProt Q9BW27).
T3 construct: GST-fused FROUNT (FNT-C)
T3 sequence (Q9BW27 500-656 limits assumed): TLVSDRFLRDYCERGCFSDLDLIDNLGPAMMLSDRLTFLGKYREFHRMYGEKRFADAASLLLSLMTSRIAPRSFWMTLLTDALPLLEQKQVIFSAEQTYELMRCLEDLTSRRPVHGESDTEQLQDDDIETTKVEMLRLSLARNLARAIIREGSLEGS
Put plainly: HTRF FROUNT-CCR2 interaction assay. It counts as binding. Conditions: HTRF. Background: Time-resolved FRET reads energy transfer from a long-lived donor to a nearby acceptor.

Series [5] relates to ALDH. Kind of series: ALDH activity assay (ALDEFLUOR). It counts as cell-based, human. As to conditions: THP-1 cells, 33 µM, 30 min. Here is the method:
THP-1 cells were incubated for 30 min with medium containing DMSO or inhibitors at the concentration of 33 μM then washed and incubated with ALDEFLUOR reagent ([…] Technologies) in assay buffer according to the manufacturer’s instruction. Fluorescence derived from substrate metabolized by cellular ALDH were measured by Gallios cytometer.

In series [6] the test system is B16 tumor cells.
Series [7] relates to B16 tumor cells. Kind of series: B16 tumor cell growth (WST-1 assay). It counts as cell-based. Conditions: B16, 48 h. In general terms: Formazan colour is commonly taken as a measure of viable cells.
Procedure: (§1) To evaluate the effects of compounds on cell growth, cells were incubated with inhibitors for 48 h, then WST-1 (Dojindo) was added to the culture for the final 30 min. An Envision instrument (PerkinElmer) was used to measure the absorbance of each well at 450 nm versus a 650-nm reference to detect the amount of formazan produced from WST-1 by mitochondrial dehydrogenases in viable cells.
Series [8] has as its system LLC tumor cells.
Series [9] deals with LLC tumor cells. Kind of series: LLC tumor cell growth (WST-1 assay). As to conditions: 48 h. It counts as cell-based.
Procedure: as §1
Series [10] concerns monocyte (CD11b+Gr-1-Ly-6C+) chemotaxis to CCL2. Put plainly: Flow cytometry-based chemotaxis assay. It counts as cell-based, mice. Conditions: 20 µM wortmannin pre-incubation. The protocol: Bone marrow cells were mechanically flushed from the femurs and tibias of Frount-floxed mice and FROUNT-cKO mice. After incubation in ammonium chloride to lyse red blood cells, nucleated cells were incubated with the following antibodies: PE-conjugated Gr-1 (clone RB6-8C5, dilution 1:400, Cat 553128), Pacific blue-conjugated Ly-6C ([…], dilution 1:400, Cat 128014), and allophycocyanin-conjugated CD11b (clone M1/70, dilution 1:400, Cat 101212). Cells were washed and adjusted to 2 × 10^7 cells mL^−1 in chemotaxis buffer. Cells were pre-incubated with 20 μM wortmannin before the assay as necessary. The chemokines murine CCL2 (Peprotech) were added to the lower chamber and 25 μL of cell suspension was added to the upper chamber of a 5-μm pore-sized chemoTX plate. After incubation at 37 °C under 5% CO2 atmosphere for 90 min, migrated cells were collected and cell populations were determined by surface expression of stained antibody in each population using a Gallios flow cytometer (Beckman coulter). Data are expressed as a migration index (number of migrated cells in the presence of chemoattractant divided by the cell number in the absence of chemokine).

Series [11] has as its system peritoneal macrophages. Kind of series: CCL2-induced pseudopodia protrusion of macrophages. It counts as cell-based, mice. As to conditions: 25 µM, 1 h pre-incubation. Here is the method:
Peritoneal macrophages were isolated from mice, seeded in the 8-well glass-based dishes (Life Technologies) and incubated overnight at 37 °C to allow the cells to adhere. After serum starvation for 6 h, cells were stimulated with chemokine at a concentration of 100 ng mL^–1, then fixed with 4% paraformaldehyde (Wako) and permeabilized with 0.1% Triton X-100 (Wako) in PBS, followed by staining with phalloidin conjugated with Alexa Fluor 594 (Life Technologies). […] Tumor macrophages were isolated from collagenase digestion of tumor tissue as attached cells by washing non-adherent cells away and further culturing them in DMEM containing 10 nM M-CSF (BD Biosciences) and 10% serum. After co-culture with LLC tumor cells, confocal images were obtained using an SP5 confocal microscope (Leica Microsystems). Cells were classified as lamellipodial/round-shaped or filopodial based on their morphology and the ratio of each type in the visual field determined.

Regarding `CCN(CC)C(=S)S` [DDC, sodium diethyldithiocarbamate], in series [1], the “chemical shift perturbations in CRBD” value is reported as “no significant perturbation”. The “binding to FROUNT protein” value in [2] is “did not bind”.
In the case of `N#CN` [cyanamide], in series [3], the cellular chemotaxis entry was “did not block”. For the same compound, the “inhibition of FROUNT-CCR2 interaction” value in [4] is “did not block”. Besides, the ALDH inhibition activity result in series [5] is given as “more potently than DSF”.
Consider `O=c1[nH]cc(F)c(=O)[nH]1` [5FU], for which the viability entry in [6] and in series [8] was “affected” each time. Besides, the in vitro growth result in [7] and in series [9] was “affected” throughout.
For `COC[C@H]1OC(=O)c2coc3c2[C@@]1(C)C1=C(C3=O)[C@@H]2CCC(=O)[C@@]2(C)C[C@H]1OC(C)=O` [wortmannin], in series [10], the “migration in response to CCL2 stimulation” value is recorded as “inhibited”. For the same compound, in series [11], the CCL2-induced pseudopodia protrusion entry is reported as “inhibition”.
As for `NC(=O)Nc1sc(-c2ccc(F)cc2)cc1C(N)=O` [IKK-IV], the viability entry in series [6] and in series [8] was “affected” throughout. For the same compound, the in vitro growth entry in series [7] and in series [9] was “affected” throughout.
